Values after ≈ are worked out from the molar mass of the structure shown.
Columns and labels:
[1] = Hygroscopicity test (DVS); format: physicochemical
Protocol: Dynamic vapor sorption (DVS) curves were acquired on a DVS Intrinsic in SMS (Surface Measurement Systems). The relative humidity at 25° C. was corrected with the deliquescence points of LiCl, Mg(NO3)2, and KCl.

[2] = Solid-state stability test (XRPD, HPLC purity); format: physicochemical
[3] = Solubility Test I (stepwise solvent addition); format: physicochemical; details: thermodynamic from solid, room temperature
Protocol: About 2 mg of the crystal form A sample prepared according to Example 2 was weighed out and added to an HPLC vial, and the corresponding solvent was added stepwise (50/50/200/700 μL in sequence), followed by oscillation until the solid was completely dissolved. If the sample was still not completely dissolved after 1 mL of the solvent was added, no more solvent was added. The solubility range was calculated based on the mass of the solid sample, the volume of the solvent added, and the observed dissolution results, and the results are summarized in Table 3-1.

[4] = Solubility Test II (saturated solubility by HPLC); format: physicochemical; details: for solubility at 24 h: 37 °C, thermodynamic from solid
Protocol: Chromatographic column: Waters XTERRA RP18, 4.6 mm×150 mm, 3.5 μm or an equivalent chromatographic column. […] The gradient elution conditions are shown in Table 3-2. pH 4.5 acetate buffer: 0.59806 g of sodium acetate trihydrate was added to a 200-mL measuring flask and dissolved in an appropriate amount of water; 1.6 mL of glacial acetic acid was added; and the mixture was diluted to volume to obtain the pH 4.5 acetate buffer. pH 6.8 phosphate buffer: 1.38501 g of potassium dihydrogen phosphate and 0.18086 g of sodium hydroxide were added to the same 200-mL measuring flask; and the mixture was dissolved in water and diluted to volume to obtain the pH 6.8 phosphate buffer. 10.0 mL of each medium was precisely measured, and the media were placed into different 25-mL measuring flasks; an appropriate amount of each test crystal form was added; and the flasks were sealed and oscillated in an oscillator at 37° C. for 24 h to obtain supersaturated solutions. pH 6.8 phosphate buffer sample solution: the supersaturated solution prepared using the pH 6.8 phosphate buffer medium was filtered to obtain the pH 6.8 phosphate buffer sample solution. Water sample solution: the supersaturated solution prepared using the water medium was filtered to obtain the water sample solution. pH 4.5 acetate buffer sample solution: the supersaturated solution prepared using the pH 4.5 acetate buffer medium was filtered, and 1.0 mL of the filtrate was precisely measured and placed into a 10-mL measuring flask; the filtrate was diluted to volume with the pH 4.5 acetate buffer medium, and 1.0 mL of the solution was then precisely measured and placed into the 10-mL measuring flask; and the solution was diluted to volume with methanol to obtain the pH 4.5 acetate buffer sample solution. (ii) Preparation of crystal form A sample solution: pH 6.8 phosphate buffer sample solution: the supersaturated solution prepared using the pH 6.8 phosphate buffer medium was filtered to obtain the pH 6.8 phosphate buffer sample solution. Water sample solution: the supersaturated solution prepared using the water medium was filtered to obtain the water sample solution. pH 4.5 acetate buffer sample solution: the supersaturated solution prepared using the pH 4.5 acetate buffer medium was filtered, and 1.0 mL of the filtrate was precisely measured and placed into a 10-mL measuring flask; the filtrate was diluted to volume with the pH 4.5 acetate buffer medium, and 1.0 mL of the solution was then precisely measured and placed into a 25-mL measuring flask; and the solution was diluted to volume with methanol to obtain the pH 4.5 acetate buffer sample solution. Each medium sample solution was taken, 10 μL of each test sample solution was precisely measured and injected into a liquid chromatograph according to the chromatography conditions described above, and the chromatogram was recorded. The saturated solution degree of each medium was calculated according to the formula below. In the formula: WR=sample weight of control solution, mg; PR=purity factor of control; • AS=peak area of main peak in test solution: DS=dilution factor of test solution; • AR=peak area of main peak in control solution; DR=dilution factor of control solution;

[5] = Pharmacokinetic experiment in SD rats; format: in vivo; details: oral intragastric 10 mg/kg
Protocol: Six SPF-grade SD rats were prepared and weighed before administration. The dose of administration was calculated based on the weight. […] These administration solutions were orally and intragastrically administered at 10 mg/kg. The rats were weighed before administration, and the dose of administration was calculated based on the weight. 3 rats were used for each crystal form. The administration solutions were orally and intragastrically administered, followed by collection of samples via the jugular vein or other suitable means at the following time points: 0.25 […], and 24 h. About 0.20 mL of each sample was collected, and the plasma was separated out by centrifugation within 2 h. The compound I was detected, and plasma drug concentration-time curves were plotted. The pharmacokinetic parameters were calculated by utilizing WinNonlin according to the plasma concentration data at different time points.

[6] = 25° C./60% RH/uncovered, 2 weeks
[7] = 25° C./60% RH/uncovered, 4 weeks
[8] = 25° C./60% RH/uncovered, 6 weeks
[9] = 40° C./75% RH/uncovered, 2 weeks
[10] = 40° C./75% RH/uncovered, 4 weeks
[11] = 40° C./75% RH/uncovered, 6 weeks

SMILES: CCOc1cc(-c2ccc(N3CC4CC(C3)N4Cc3ccc(OC)nc3)nc2)c2c3cn[nH]c3nn2c1 (single isomer, unassigned) [Crystal form A]
- hygroscopicity evaluation ([1]; DVS at 25° C., 0% RH-95% RH, according to Chinese Pharmacopoeia 2015 Edition): slightly hygroscopic
- hygroscopic weight gain ([1]; DVS, 25° C./80% RH, listed as crystal form A): about 1.1%
- crystal form after the DVS test (XRPD) ([1]; after DVS test): not changed
- Purity (area %) [2, 6]: 99.95 area %
- Relative to initial purity (%) [2, 6]: 99.99%
- Crystal form change ([2]; 25° C./60% RH/uncovered, 2 weeks, XRPD): No change
- Purity (area %) [2, 7]: 99.94 area %
- Relative to initial purity (%) [2, 7]: 99.98%
- Crystal form change ([2]; 25° C./60% RH/uncovered, 4 weeks, XRPD): No change
- Purity (area %) [2, 8]: 99.96 area %
- Relative to initial purity (%) [2, 8]: 100.00%
- Crystal form change ([2]; 25° C./60% RH/uncovered, 6 weeks, XRPD): No change
- Purity (area %) [2, 9]: 99.96 area %
- Relative to initial purity (%) [2, 9]: 100.00%
- Crystal form change ([2]; 40° C./75% RH/uncovered, 2 weeks, XRPD): No change
- Purity (area %) [2, 10]: 99.96 area %
- Relative to initial purity (%) [2, 10]: 100.00%
- Crystal form change ([2]; 40° C./75% RH/uncovered, 4 weeks, XRPD): No change
- Purity (area %) [2, 11]: 99.95 area %
- Relative to initial purity (%) [2, 11]: 99.99%
- Crystal form change ([2]; 40° C./75% RH/uncovered, 6 weeks, XRPD): No change
- Purity (area %) ([2]; 60° C./sealed, 24 h): 99.96 area %
- Relative to initial purity (%) ([2]; 60° C./sealed, 24 h): 100.00%
- Crystal form change ([2]; 60° C./sealed, 24 h, XRPD): No change
- HPLC purity under the test conditions ([2]; all stability conditions (60° C. sealed 24 h; 25° C./60% RH and 40° C./75% RH uncovered 2, 4, 6 weeks)): not significantly reduced
- crystal form under the test conditions ([2]; all stability conditions, XRPD): not changed
- solubility ([3]; organic solvent or mixture, solvent 1,4-Dioxane): 2000 to 6700 µg/mL (≈ 4.03 to 13.5 mM)
- solubility ([3]; organic solvent or mixture, solvent 2-MeTHF): 2400 to 8000 µg/mL (≈ 4.83 to 16.1 mM)
- solubility ([3]; organic solvent or mixture, solvent ACN): < 2200 µg/mL
- solubility ([3]; organic solvent or mixture, solvent Acetone, undissolved sample completely dissolved at 50° C. ~1 h): < 1900 µg/mL
- solubility ([3]; organic solvent or mixture, solvent Anisole, undissolved sample completely dissolved at 50° C. ~1 h): < 2200 µg/mL
- solubility ([3]; organic solvent or mixture, solvent CHCl3): 20000 to 40000 µg/mL (≈ 40.3 to 80.6 mM)
- solubility ([3]; organic solvent or mixture, solvent CPME, undissolved sample completely dissolved at 50° C. ~1 h): < 2000 µg/mL
- solubility ([3]; organic solvent or mixture, solvent DCM): 7700 to 23000 µg/mL (≈ 15.5 to 46.3 mM)
- solubility ([3]; organic solvent or mixture, solvent DMSO): 21000 to 42000 µg/mL (≈ 42.3 to 84.6 mM)
- solubility ([3]; organic solvent or mixture, solvent EtOAc, undissolved sample completely dissolved at 50° C. ~1 h): < 2200 µg/mL
- solubility ([3]; organic solvent or mixture, solvent EtOH, undissolved sample completely dissolved at 50° C. ~1 h): < 1900 µg/mL
- solubility ([3]; organic solvent or mixture, solvent IPA, undissolved sample completely dissolved at 50° C. ~1 h): < 2000 µg/mL
- solubility ([3]; organic solvent or mixture, solvent IPAC): < 2200 µg/mL
- solubility ([3]; organic solvent or mixture, solvent MIBK): < 2200 µg/mL
- solubility ([3]; organic solvent or mixture, solvent MTBE): < 2200 µg/mL
- solubility ([3]; organic solvent or mixture, solvent MeOH, undissolved sample completely dissolved at 50° C. ~1 h): < 2100 µg/mL
- solubility ([3]; organic solvent or mixture, solvent THE): 1900 to 6300 µg/mL (≈ 3.83 to 12.7 mM)
- solubility ([3]; organic solvent or mixture, solvent Toluene): < 2000 µg/mL
- solubility ([3]; organic solvent or mixture, solvent n-Heptane): < 2000 µg/mL
- solubility ([3]; water, solvent H2O): < 2300 µg/mL
- Saturated solubility ([4]; pH 4.5 acetate buffer, 37° C., 24 h, listed as crystal form A): 14545.08 µg/mL
- solubility at 24 h ([4]; pH 6.8 phosphate buffer, pH 6.8, aqueous buffer): 0.04 µg/mL (≈ 8.06e-05 mM)
- solubility at 24 h ([4]; water): 0.61 µg/mL (≈ 0.00123 mM)
- AUC(0-t) ([5]; SD, rat, plasma, po, 10 mg/kg, 1 mg/mL in 5% DMSO in normal saline, compound I in plasma, 0.25-24 h, read-out: AUC(0-t)): 19100 ng·h/mL
- in vivo absorption ([5]; comparison of crystal forms): significantly superior to that of the crystal form B
